According to ChEMBL document CHEMBL1944566, “Conjugation of cell-penetrating peptides leads to identification of anti-HIV peptides from matrix proteins” (Bioorg Med Chem, 2012):
pEC50: −log10 of the molar value. Where a SMILES comes first, the peptide text is derived from it. The star is where a group is joined. Cam = NC(=O)C*

Experiments:
[1] = test system: Human immunodeficiency virus 1; experiment: Antiviral activity against X4 tropic HIV1 NL4-3 in MT4 cells assessed as protection from virus-induced cytopathogenicity after 5 days by MTT assay; assay type: functional, organism-based; details: Human immunodeficiency virus 1, NL4-3, MT4, 120 h
[2] = test system: Human immunodeficiency virus 1; experiment: Antiviral activity against R5 tropic HIV1 NL(AD8) in PM1/CCR5 cells assessed as protection from virus-induced cytopathogenicity at 6.25 uM after 5 days by MTT assay; assay type: functional; details: Human immunodeficiency virus 1, NL(AD8), PM1/CCR5, 120 h
[3] = test system: Human immunodeficiency virus 1; experiment: Antiviral activity against R5 tropic HIV1 JR-CSF in PM1/CCR5 cells assessed as protection from virus-induced cytopathogenicity measuring capsid p24 level at 50 uM after 5 days by ELISA; assay type: functional; details: Human immunodeficiency virus 1, JRCSF ISOLATE, PM1/CCR5, 120 h
[4] = Cytotoxicity against human MT4 cells after 5 days by MTT assay; assay type: cell-based

CC[C@H](C)[C@H](NC(=O)[C@H](CCC(N)=O)NC(=O)[C@H](CCCNC(=N)N)NC(=O)[C@H](CO)NC(=O)CNC(=O)[C@H](CCC(=O)O)NC(=O)[C@H](CO)NC(=O)[C@@H](NC(=O)[C@H](CCC(=O)O)NC(=O)[C@H](CC(C)C)NC(C)=O)[C@@H](C)O)C(=O)N[C@@H](CC(C)C)C(=O)NCC(=O)N[C@@H](CCC(N)=O)C(=O)N[C@@H](CC(C)C)C(=O)N[C@@H](CCC(N)=O)C(=O)NCC(=O)N[C@@H](CSCC(N)=O)C(N)=O (Ac-LETSEGSRQILGQLQGC(Cam)-NH2)
pEC50 [1]: 4.43
inhibition at 6.25 µM [2]: 24%
inhibition at 50 µM [3]: 25%
CC50 at 120 h [4]: > 50 µM
